Series [1] deals with FIN13 mRNA. Nature of the series: Northern analysis of FIN13 mRNA induction in NIH 3T3 cells. The class given is cell-based, mouse. Here is the method:
FIG. 4. Regulation of FIN13 (and other FINs) mRNA in response to FGF-4. NIH 3T3 cells were starved for 48 h in DMEM/0.5% CS and stimulated for the indicated times up to 24 h with 100 ng/ml FGF-4. A15 cells and NIH 3T3 cells growing asynchronously in the presence of DMEM/10% CS are indicated as A15 and 3T3 respectively. Total RNA (6 μg) was examined by Northern analysis with ^32 P-labelled cDNAs for the indicated FIN genes shown on the left. The position of 28S and 18S rRNA are indicated on the right.
(§1) Cell culture. Mouse NIH 3T3 cells and A15 cells were cultured in Dulbecco's modified Eagle's medium (DMEM) containing 10% calf serum (CS). A15 cells are a NIH 3T3 cell line transformed with a human genomic fragment of the FGF-4 gene and have been previously described (Delli Bovi and Basilico, 1987, Proc. Natl. Acad. Sci. USA 84:5660). Rat pheochromocytoma PC12 cells were cultured in DMEM containing 10% heat inactivated horse serum (HS) (Gemini Bioproducts), 5% fetal bovine serum (FBS) (Gemini Bioproducts). […] Greater than 90% of PC12 cells had differentiated after 96 h or FGF-4 or NGF treatment as determined by the induction of neurite-like processes. […]
A maximum induction of 6-fold following 18 h stimulation was observed. […] The effect of cycloheximide on the induction of FIN13 mRNA was evaluated as follows. […]

The next series deals with T1, his-FIN13 (Mus musculus, UniProt Q61074).
T1 construct: Purified his-tagged full length FIN13 (his-FIN13); made in house; host or cells: E. coli BL21(DE3)
T1 sequence (Q61074 151-542 limits assumed): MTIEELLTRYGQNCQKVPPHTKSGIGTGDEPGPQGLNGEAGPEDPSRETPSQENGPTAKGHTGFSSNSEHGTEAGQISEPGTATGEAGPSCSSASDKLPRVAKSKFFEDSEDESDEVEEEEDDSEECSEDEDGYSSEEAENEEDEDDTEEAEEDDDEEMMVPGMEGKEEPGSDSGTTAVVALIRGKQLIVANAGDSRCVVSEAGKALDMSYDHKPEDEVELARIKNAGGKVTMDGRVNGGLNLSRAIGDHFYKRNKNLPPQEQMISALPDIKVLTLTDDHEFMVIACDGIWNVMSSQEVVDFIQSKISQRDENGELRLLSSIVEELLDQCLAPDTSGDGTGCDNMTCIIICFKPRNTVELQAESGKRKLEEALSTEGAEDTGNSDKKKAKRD
Briefly: Phosphatase assay of bacterially expressed his-FIN13 with 32P-labelled casein. The class given is biochemical. As for the experimental part:
FIG. 5. Phosphatase activity of bacterially expressed FIN13. Purified his-tagged full length FIN13 (his-FIN13) or his-tagged catalytic domain FIN13 (his-FIN13-cat) were examined for their ability to dephosphorylate ^32 P-labelled cascin in vitro as described in the Materials and Methods. Phosphatase assays were performed in the absence of his-FIN13 (No FIN13; open bar) or with his-FIN13 incubated in the presence of 10 mM of the indicated divalent cation (MgCl2, ZnCl2, CaCl2 or MnCl2)(solid bars) or in the presence of the indicated mM concentrations of MnCl2 (half-tone bars). +EDTA: indicates his-FIN13 incubated in the presence of 10 mM EDTA and 10 mM MnCl2. his-FIN13-cat was incubated in the presence of the indicated mM concentrations of MnCl2 (cross-hatched bars). his-FIN13 was also incubated in the presence of 1 μM okadaic acid (OA), 20 mg/ml poly L-lysine (PL-L), 20 mg/ml protamine sulfate (PS). All incubations were performed for 1 h at 30° C.
Preparation of ^32 P-labelled casein. Casein (10 mg)(Sigma) was labelled with ^32 P using 10U of the catalytic subunit of cAMP dependent protein kinase (Sigma) in 50 mM Tris-HCl pH 7.0, 0.1 mM EGTA, 10 mM Mg-acetate, 0.1% β-mercaptoethanol, and 0.5 mCi of ^32 PγATP for 12 h at 30° C. The reaction mixture was then precipitated at 4° C. in 20% TCA. Labelled casein was recovered by centrifugation, the pellet washed 5 times in 100% acetone and resuspended in 50 mM Tris-HCl, 0.1 mM EGTA.
Phosphatase assay. The phosphatase activity of purified FIN13 expressed in bacteria as a fusion protein with N- and C-terminal his-tags was assessed in vitro using ^32 P-labelled casein as a substrate. For preparation of his-FIN13 and his-FIN13-cat from bacteria, the BL21(DE3) strain transformed with pEThis-FIN13 or pEThis-FIN13-cat were induced with 0.2 mM IPTG for 2 h following which the cells were recovered by centrifugation, resuspended in column buffer (50 mM sodium phosphate, pH 8.0, 300 mM NaCl, 1 mM PMSF) and frozen overnight at -70° C. The bacteria were then lysed by sonication at 4° C. and the extract cleared by centrifugation. The supernatant was then adsorbed to Ni-NTA-agarose (Qiagen) at 4° C. for 1 h. The resin was then washed extensively in column buffer without PMSF and his-FIN13 or his-FIN13-cat were eluted using 25 mM Tris-HCl pH 7.2, 100 mM NaCl containing […] imidazole (Sigma). In addition, the phosphatase activity of FIN13 expressed in HeLa cells was also determined in an immune complex using ^32 P-labelled casein as a substrate. For preparation of immune complexes of myc-FIN13, HeLa cells were transfected with […] of pRKmyc-FIN13 or pRK5. Cells were lysed 24 h after transfection in lysis buffer (10 mM Na-phosphate pH 7.4, 100 mM NaCl, 1% TRITON X-100, 10 mM EDTA) also containing a protease/phosphatase inhibitor cocktail (1 mM PMSF, 1 μg/ml pepstatin, 1 μg/ml leupeptin, 1 μg/ml aprotinin, 10 mM Na-orthovanadate, 80 mM NaF, 80 mM β-glycerolphosphate, 10 μM okadaic acid). Cleared lysates (100 μg total protein) were immunoprecipitated with anti-myc monoclonal antibody (9E10) adsorbed to 30 μl protein G sepharose (Zymed) or anti-FIN13 antiserum adsorbed to 30 μl protein A sepharose (Zymed) for 1.5 h at 4° C. The anti-FIN13 polyclonal antiserum (630) was generated against the full length his-FIN13 expressed and purified from bacteria. The IPs were then washed 5 times with lysis buffer, once with 10 mM Tris-HCl pH 7.0, 100 mM NaCl and 5 mM MnCl2, and twice with phosphatase reaction buffer (10 mM Tris-HCl pH 7.0, 0.1 mM EGTA, 10 mM DTT and 10 mM MnCl2) containing 1 μM okadaic acid. Purified his-FIN13, his-FIN13-cat or myc-lPs were then examined for phosphatase activity by incubating the indicated FIN13 preparation in the presence of phosphatase reaction buffer containing ^32 P-labelled casein (1×10^5 cpm; approx. 1 μl) at 30° C. for up to 2 h.

The next series has as its target T2, myc-FIN13 (Mus musculus, UniProt Q61074).
T2 construct: in-frame with, and N-terminal to, the FIN13 open reading frame; expressed in transfected cells; host or cells: HeLa
T2 sequence (Q61074 151-542): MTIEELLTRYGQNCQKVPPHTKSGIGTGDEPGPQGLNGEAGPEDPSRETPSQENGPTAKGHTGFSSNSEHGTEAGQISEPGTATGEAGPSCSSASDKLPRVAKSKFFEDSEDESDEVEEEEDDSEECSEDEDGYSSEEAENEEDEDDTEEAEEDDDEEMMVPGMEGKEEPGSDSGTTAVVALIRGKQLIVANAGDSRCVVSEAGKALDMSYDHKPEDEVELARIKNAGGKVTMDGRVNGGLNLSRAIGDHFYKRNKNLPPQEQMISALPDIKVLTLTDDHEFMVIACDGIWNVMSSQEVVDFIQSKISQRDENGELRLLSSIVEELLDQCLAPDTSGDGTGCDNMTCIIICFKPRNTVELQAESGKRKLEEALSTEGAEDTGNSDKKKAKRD
Briefly: Phosphatase assay of myc-FIN13 immunoprecipitated from transfected HeLa cells. The class given is biochemical. As for the experimental part:
FIGS. 6A-6C. Phosphatase activity and expression of FIN13 in mammalian cells. HeLa cells transfected with either pRK5 vector or pRKmyc-FIN13 (expressing myc-FIN13) and harvested 24 h later, were lysed in lysis buffer and cleared extracts ([…]) were immunoprecipitated with either anti-myc antibodies (9E10) or anti-FIN13 antiserum (630). IPs were then divided and subjected to either Western analysis for the detection of FIN13 expression or a phosphatase assay. For the detection of FIN13 (A), 1/4 of the IP was boiled in sample buffer and loaded onto a 10% polyacrylamide gel, electrophoresed and transferred to a nitrocellulose filter. Western blot analysis was performed using the 630 antiserum at 1:500 as described in Materials and Methods. For analysis of phosphatase activity (B), the ability of myc-FIN13 immunoprecipitates (1/8 of IP) to dephosphorylate ^32 P-labelled casein was examined in vitro in the presence of okadaic acid and MnCl2 as described in Materials and Methods. […]
Phosphatase assay. The phosphatase activity of purified FIN13 expressed in bacteria as a fusion protein with N- and C-terminal his-tags was assessed in vitro using ^32 P-labelled casein as a substrate. […] In addition, the phosphatase activity of FIN13 expressed in HeLa cells was also determined in an immune complex using ^32 P-labelled casein as a substrate. […]

Another series deals with Protein phosphatase 2A (Homo sapiens, UniProt P67775). Nature of the series: Protein phosphatase 2A control phosphatase assay. The class given is biochemical. Particulars: 2 h, presence of okadaic acid.
Protein phosphatase 2A, sequence (P67775 whole entry): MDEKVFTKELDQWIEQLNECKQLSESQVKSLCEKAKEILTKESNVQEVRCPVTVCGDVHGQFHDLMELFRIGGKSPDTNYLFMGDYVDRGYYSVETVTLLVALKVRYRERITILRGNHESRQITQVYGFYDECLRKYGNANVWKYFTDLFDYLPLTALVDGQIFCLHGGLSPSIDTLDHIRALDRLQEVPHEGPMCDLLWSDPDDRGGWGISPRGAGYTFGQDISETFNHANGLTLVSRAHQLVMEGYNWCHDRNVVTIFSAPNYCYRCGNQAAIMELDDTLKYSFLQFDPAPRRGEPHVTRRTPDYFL
In series [2] the test system is FIN13 mRNA. Nature of the series: FIN13 mRNA in ovaries of mice stimulated with DES. In kind it is in vivo. The note with it: mouse. Here is the method:
Northern analysis. RNA was electrophoresed on a 1% formaldehyde agarose gel, transferred overnight in 20×SSC to Genescreen-Plus nylon filters (Du Pont) and fixed by u.v. crosslinking. Filters were prehybridized, hybridized with radiolabeled cDNA probes and washed under standard conditions. To stimulate folliculogensis, immature mice (3 weeks) were injected subcutaneously with diethylstilbesterol (DES) or vehicle essentially as described previously (Guthridge et al., Growth Factors, 7:15 (1992)), and RNA was prepared from ovaries four days after stimulation.

The subject of a further series is FIN13 transcripts. Nature of the series: Regulation of FIN13 transcripts in PC12 cells. In kind it is cell-based, rat. The note with it: starved PC12 cells. Here is the method: as §1, with “Bioproducts). For stimulation with growth factors, NIH 3T3 cells were grown to 60-80% confluence, starved for 48 h in DMEM containing 0.5% CS and then stimulated with 50 ng/ml recombinant human FGF-4 or 10% CS for up to 24 h. Where indicated 10 μg/ml cycloheximide was added simultaneously with the growth factor. PC12 cells were starved for 48 h in DMEM containing 4.9 g/l glucose, 0.1% HS and 5% FBS for up to 24 h.” for “Bioproducts).”
Cells were starved for 48 h in 0.2% serum and then stimulated with either serum or FGF-4. […] Similar regulation of FIN13 was observed when starved PC12 cells were stimulated with FGF-4 with maximum expression detected at 12 h which decreased until 96 h.

Read-outs that look alike come from different tables or passages of the source.

Regarding `C[C@@H]1C[C@@H]([C@H](O)CC2CC(=O)NC(=O)C2)C(=O)[C@@H](C)C1` [cycloheximide], the “induction of FIN13 mRNA by FGF-4 in presence of protein synthesis inhibitor” value in the series on FIN13 mRNA [1] (18 h FGF-4, 10 mg/ml cycloheximide) was “did not result in induction of FIN13”.
For `O=C(O)CN(CCN(CC(=O)O)CC(=O)O)CC(=O)O` [EDTA], the “effect on his-FIN13 phosphatase activity” value at his-FIN13 is listed as “abolished activity”. The “effect on FIN13 activity in 9E10 IPs” value at myc-FIN13 (EDTA 10 mM) is recorded as “abolished”.
With `C=C1[C@@H](O)[C@@H]2O[C@]3(CC[C@H](/C=C/[C@@H](C)[C@@H]4CC(C)=C[C@@]5(O[C@H](C[C@@](C)(O)C(=O)O)CC[C@H]5O)O4)O3)CC[C@H]2O[C@@H]1[C@@H](O)C[C@H](C)[C@H]1O[C@@]2(CCCCO2)CC[C@H]1C` [okadaic acid], at his-FIN13 (1 μM okadaic acid), the “effect on his-FIN13 phosphatase activity” value is “not inhibited”. For the same molecule, the “effect on PP2A activity” value at Protein phosphatase 2A is given as “abolished”.
Turning to `CC/C(=C(/CC)c1ccc(O)cc1)c1ccc(O)cc1` [DES, diethylstilbesterol], the “expression of fin13 mRNA in ovaries” value with FIN13 mRNA [2] is listed as “increases expression”.

B1: FGF-4: recombinant human fibroblast growth factor 4 (protein, UniProt P08620 31-206, looked up)
Fibroblast growth factor 4: APTAPNGTLEAELERRWESLVALSLARLPVAAQPKEAAVQSGAGDYLLGIKRLRRLYCNVGIGFHLQALPDGRIGGAHADTRDSLLELSPVERGVVSIFGVASRFFVAMSSKGKLYGSPFFTDECTFKEILLPNNYNAYESYKYPGMFIALSKNGKTKKGNRVSPTMKVTHFLPRL
B1: the “maximum induction of FIN13 mRNA” value with FIN13 mRNA [1] (18 h stimulation of NIH 3T3 cells) turned out to be 6 fold. The “time of maximum FIN13 expression” value with FIN13 transcripts is 12 h.

B2: myc-FIN13: FIN13 N-terminally fused to the myc epitope, expressed from pRKmyc-FIN13 (protein)
chain: MTIEELLTRYGQNCQKVPPHTKSGIGTGDEPGPQGLNGEAGPEDPSRETPSQENGPTAKGHTGFSSNSEHGTEAGQISEPGTATGEAGPSCSSASDKLPRVAKSKFFEDSEDESDEVEEEEDDSEECSEDEDGYSSEEAENEEDEDDTEEAEEDDDEEMMVPGMEGKEEPGSDSGTTAVVALIRGKQLIVANAGDSRCVVSEAGKALDMSYDHKPEDEVELARIKNAGGKVTMDGRVNGGLNLSRAIGDHFYKRNKNLPPQEQMISALPDIKVLTLTDDHEFMVIACDGIWNVMSSQEVVDFIQSKISQRDENGELRLLSSIVEELLDQCLAPDTSGDGTGCDNMTCIIICFKPRNTVELQAESGKRKLEEALSTEGAEDTGNSDKKKAKRD
As for B2, in the series with myc-FIN13 (IP with 9E10 or 630, okadaic acid and MnCl2 present), the “phosphatase activity of immunoprecipitate in vitro” value is reported as “exhibited phosphatase activity”.

Values taken from US6066485A, “Growth factor inducible serine/threonine phosphatase fin13” (New York University, priority 1997, dated 2000).
